Test results taken from ChEMBL document CHEMBL1151032, “Local constrained shifty pseudopeptides inhibitors of rasfarnesyl transferase” (Bioorg Med Chem Lett, 1995).
Values belong to the compound of their own block, whether it stands above or below them.

What was measured:
[1] = target: T1, Protein farnesyltransferase (Mus musculus, UniProt Q61239+Q8K2I1); test: Inhibition of farnesyl transferase in NIH3T3 cell based assay under reducing (+DTT) conditions; assay type: functional
[2] = target: T2, Protein farnesyltransferase (Homo sapiens, UniProt P49354+P49356); test: In vitro inhibition of farnesyl transferase; assay type: protein-complex assay
[3] = target: T1, Protein farnesyltransferase; test: Inhibition of farnesyl transferase in NIH3T3 cell based assay in non-reducing (-DTT) conditions; assay type: functional
[4] = target: T2, Protein farnesyltransferase; test: In vitro inhibition of Human farnesyl transferase; assay type: protein-complex assay
[5] = target: Protein farnesyltransferase (Bos taurus, UniProt P29702+P49355); test: In vitro inhibition of bovine farnesyl transferase; assay type: protein-complex assay
[6] = tested on: NIH3T3; test: Inhibition of Ha-Ras-transformed NIH3T3 cell growth at 5 uM; assay type: functional; settings: Mus musculus
[7] = tested on: NIH3T3; test: Inhibition of Ki-Ras-transformed NIH3T3 cell growth at 5 uM; assay type: functional; settings: Mus musculus
[8] = tested on: NIH3T3; test: Inhibition of Ki-Ras-transformed NIH3T3 cell growth at 1 uM; assay type: functional; settings: Mus musculus
[9] = tested on: NIH3T3; test: Inhibition of v-Raf-transformed NIH3T3 cell growth at 10 uM; assay type: functional; settings: Mus musculus
[10] = tested on: NIH3T3; test: Inhibition of Ki-Ras-transformed NIH3T3 cell growth at 10 uM; assay type: functional; settings: Mus musculus
[11] = tested on: NIH3T3; test: Inhibition of Ha-Ras-transformed NIH3T3 cell growth at 10 uM; assay type: functional; settings: Mus musculus
[12] = tested on: NIH3T3; test: Inhibition of Ha-Ras-transformed NIH3T3 cell growth at 1 uM; assay type: functional; settings: Mus musculus
[13] = target: T2, Protein farnesyltransferase; test: In vitro inhibition of farnesyl transferase enzyme (inactive); assay type: protein-complex assay

Structure (SMILES): CSCC[C@H](NC(=O)[C@@H]1Cc2ccccc2CN1C(=O)[C@H](C(C)C)N(C)C(=O)[C@@H](N)CS)C(=O)O
IC50 [4]: 0.005 µM

Structure (SMILES): CSCC[C@H](NC(=O)[C@H](Cc1ccccc1)NC(=O)[C@@H](NC[C@@H](N)CS)C(C)C)C(=O)O
IC50 [5]: 0.023 µM

Structure (SMILES): CSCC[C@H](NC(=O)[C@@H]1Cc2ccccc2CN1C(=O)CN(CCS)C(=O)OC(C)(C)C)C(=O)O
IC50 [2]: > 100 µM

Structure (SMILES): CSCCC(NC(=O)C1Cc2ccccc2CN1CC(=O)NCCS)C(=O)O (stereo not given)
IC50 [2]: 2 µM

Structure (SMILES): CSCC[C@H](NC(=O)[C@@H]1Cc2ccccc2CN1C(=O)CNCCS)C(=O)O
IC50 [2]: 0.1 µM

Structure (SMILES): COC(=O)[C@H](CCSC)NC(=O)[C@@H]1Cc2ccccc2CN1C(=O)CNCCS
IC50 [2]: 0.29 µM

Structure (SMILES): COC(=O)[C@H](CCSC)NC(=O)[C@@H]1Cc2ccccc2CN1C(=O)CN(CCS)C(=O)OC(C)(C)C
IC50 [2]: > 100 µM

Structure (SMILES): COC(=O)C(CCSC)NC(=O)C1Cc2ccccc2CN1CC(=O)NCCSSCCNC(=O)CN1Cc2ccccc2CC1C(=O)NC(CCSC)C(=O)OC (stereo not given)
IC50 [13]: Not Active

Structure (SMILES): COC(=O)C(CCSC)NC(=O)C1Cc2ccccc2CN1CC(=O)NCCS (stereo not given)
IC50 [13]: Not Active

Structure (SMILES): CSCC[C@H](NC(=O)[C@H](Cc1ccccc1)NC[C@@H](NC[C@@H](N)CS)C(C)C)C(=O)O
IC50 [5]: 0.021 µM

More lines, main results first:

IC50 [1]: > 1000 µM
IC50 [2]: > 100 µM
IC50 [3]: > 1000 µM
Structure (SMILES): CSCC[C@H](NC(=O)[C@@H]1Cc2ccccc2CN1C(=O)CN(CCSSCCN(CC(=O)N1Cc2ccccc2C[C@H]1C(=O)N[C@@H](CCSC)C(=O)O)C(=O)OC(C)(C)C)C(=O)OC(C)(C)C)C(=O)O

IC50 [1]: > 1000 µM
IC50 [2]: > 100 µM
IC50 [3]: > 1000 µM
Structure (SMILES): COC(=O)[C@H](CCSC)NC(=O)[C@@H]1Cc2ccccc2CN1C(=O)CN(CCSSCCN(CC(=O)N1Cc2ccccc2C[C@H]1C(=O)N[C@@H](CCSC)C(=O)OC)C(=O)OC(C)(C)C)C(=O)OC(C)(C)C

IC50 [1]: 100 µM
IC50 [2]: 0.145 µM
IC50 [3]: 100 µM
Structure (SMILES): COC(=O)[C@H](CCSC)NC(=O)[C@@H]1Cc2ccccc2CN1C(=O)CNCCSSCCNCC(=O)N1Cc2ccccc2C[C@H]1C(=O)N[C@@H](CCSC)C(=O)OC
inhibition at 5 µM [6]: 80%
inhibition at 5 µM [7]: 89%
inhibition at 1 µM [8]: 24%
inhibition at 10 µM [9]: 9%
inhibition at 10 µM [10]: 97%
inhibition at 10 µM [11]: 91%
inhibition at 1 µM [12]: 9%

IC50 [13]: Not Active
Structure (SMILES): CSCCC(NC(=O)C1Cc2ccccc2CN1CC(=O)NCCSSCCNC(=O)CN1Cc2ccccc2CC1C(=O)NC(CCSC)C(=O)O)C(=O)O (stereo not given)

IC50 [1]: > 1000 µM
IC50 [2]: 0.05 µM
IC50 [3]: > 1000 µM
Structure (SMILES): CSCC[C@H](NC(=O)[C@@H]1Cc2ccccc2CN1C(=O)CNCCSSCCNCC(=O)N1Cc2ccccc2C[C@H]1C(=O)N[C@@H](CCSC)C(=O)O)C(=O)O
